In patent US10045983B2, “Heteroaryl pyridone and aza-pyrodine compounds” (Genentech, Inc., priority 2011, dated 2018) one finds IC70 data, which are given here for 20 molecules.

The structures appear in SMILES notation.

What is called IC70 is the point of the concentration-response curve where the effect stands at 70%.

One experiment is described as follows: CD69 Whole Blood Assay (CD69 Hu Blood FACS). Type of experiment: cell-based, human. The following applies: Homo sapiens, Lymphocyte, read-out: CD69 Hu Blood FACS IC70 (μM). The source says:
A CD69 Whole Blood Assay can be conducted on Formula I compounds to determine the ability of compounds to inhibit the production of CD69 by B lymphocytes in human whole blood activated by crosslinking surface IgM with goat F(ab′)2 anti-human IgM (Example 907). CD69 is a type II C-type lectin involved in lymphocyte migration and cytokine secretion. CD69 expression represents one of the earliest available indicators of leukocyte activation and its rapid induction occurs through transcriptional activation (Vazquez et al (2009) Jour. of Immunology Published Oct. 19, 2009, doi:10.4049/jimmunol.0900839). Concentration-dependent inhibition of antigen receptor stimulation by selective Btk inhibitors induces cell surface expression of the lymphocyte activation marker CD69 (Honigberg et al (2010) Proc. Natl. Acad. Sci. 107(29):13075-13080). Thus, CD69 inhibition by selective Btk inhibitors may be correlated with therapeutic efficacy of certain B-cell disorders.
As to `Cn1cc(-c2ccnc(N3CCn4c(cc5c4CCCC5)C3=O)c2CO)cc(Nc2ccc(N3[C@@H]4CC[C@H]3CN(C3COC3)C4)cn2)c1=O` [Example 152, 2-{3′-Hydroxymethyl-1-methyl-5-[5-((1 S,5R)-3-oxetan-3-yl-3,8-diaza-bicyclo[3.2.1]oct-8-yl)-pyridin-2-ylamino]-6-oxo-1,6-dihydro-[3,4′]bipyridinyl-2′-yl}-3,4,6,7,8,9-hexahydro-2H-pyrazino[1,2-a]indol-1-one], the IC70 turned out to be 0.188 µM.

Staying with this experiment, now noted: Lymphocyte; human whole blood, anti-IgM activated B lymphocytes, FACS; IC70; Table 1; read-out: CD69 Hu Blood FACS IC70.
For the molecule `Cn1cc(-c2ccnc(N3CCn4c5c(c(F)c4C3=O)CCCC5)c2CO)cc(Nc2ccc(N3CCN(C4COC4)CC3)cn2)c1=O` [Example 134, 10-Fluoro-2-(3-(hydroxymethyl)-4-(1-methyl-5-(5-(4-(oxetan-3-yl)piperazin-1-yl)pyridin-2-ylamino)-6-oxo-1,6-dihydropyridin-3-yl)pyridin-2-yl)-3,4,6,7,8,9-hexahydropyrazino[1,2-a]indol-1(2H)-one], the IC70 was 0.0944 µM. On the same count and under the same terms, next, `CN1CCn2nc(Nc3cc(-c4ccnc(N5CCn6c7c(c(F)c6C5=O)CCCC7)c4CO)cn(C)c3=O)cc2C1` [Example 135, 10-Fluoro-2-(3-(hydroxymethyl)-4-(1-methyl-5-(5-methyl-4,5,6,7-tetrahydropyrazolo[1,5-a]pyrazin-2-ylamino)-6-oxo-1,6-dihydropyridin-3-yl)pyridin-2-yl)-3,4,6,7,8,9-hexahydropyrazino[1,2-a]indol-1(2H)-one]: 0.107 µM; `C[C@H]1CN(C2COC2)CCN1c1ccc(Nc2cc(-c3ccnc(N4CCn5c6c(c(F)c5C4=O)CCCC6)c3CO)cn(C)c2=O)nc1` [Example 136, (S)-10-Fluoro-2-(3-(hydroxymethyl)-4-(1-methyl-5-(5-(2-methyl-4-(oxetan-3-yl)piperazin-1-yl)pyridin-2-ylamino)-6-oxo-1,6-dihydropyridin-3-yl)pyridin-2-yl)-3,4,6,7,8,9-hexahydropyrazino[1,2-a]indol-1(2H)-one]: 0.03 µM; `C[C@@H]1CN(C2COC2)CCN1c1ccc(Nc2cc(-c3ccnc(N4CCn5c(cc6c5CCCC6)C4=O)c3CO)cn(C)c2=O)nc1` [Example 137, (R)-2-(3-(hydroxymethyl)-4-(1-methyl-5-(5-(2-methyl-4-(oxetan-3-yl)piperazin-1-yl)pyridin-2-ylamino)-6-oxo-1,6-dihydropyridin-3-yl)pyridin-2-yl)-3,4,6,7,8,9-hexa-hydropyrazino[1,2-a]indol-1(2H)-one]: 0.0646 µM. Take `CN1CCn2nc(Nc3cc(-c4cncc(N5CCn6c(cc7c6CCCC7)C5=O)c4CO)cn(C)c3=O)cc2C1` [Example 138, 2-(4-(Hydroxymethyl)-5-(1-methyl-5-(5-methyl-4,5,6,7-tetrahydropyrazolo[1,5-a]pyrazin-2-ylamino)-6-oxo-1,6-dihydropyridin-3-yl)pyridin-3-yl)-3,4,6,7,8,9-hexahydropyrazino[1,2-a]indol-1(2H)-one]: the concentration for an effect of 70% (IC70) was determined as 0.353 µM. Same read-out and setting: then `Cn1cc(-c2ccnc(N3CCc4c(cc5n4CCCC5)C3=O)c2CO)cc(Nc2ccc(N3CCN(C4COC4)CC3)cn2)c1=O` [Example 139, 2-(3-(Hydroxymethyl)-4-(1-methyl-5-(5-(4-(oxetan-3-yl)piperazin-1-yl)pyridine-2-ylamino)-6-oxo-1,6-dihydropyridin-3-yl)pyridin-2-yl)-3,4,6,7,8,9-hexahydropyrido[3,4-b]indolizin-1(2H)-one], with 0.326 µM; and `C[C@H]1CN(C2COC2)CCN1c1ccc(Nc2cc(-c3ccnc(N4CCn5c(cc6c5CC(F)(F)CC6)C4=O)c3CO)cn(C)c2=O)nc1` [Example 140, (S)-7,7-Difluoro-2-(3-(hydroxymethyl)-4-(1-methyl-5-(5-(2-methyl-4-(oxetan-3-yl)piperazin-1-yl)pyridin-2-ylamino)-6-oxo-1,6-dihydropyridin-3-yl)pyridin-2-yl)-3,4,6,7,8,9-hexahydropyrazino[1,2-a]indol-1(2H)-one], with 0.308 µM; and `CN1CCn2nc(Nc3cc(-c4ccnc(N5CCn6c(cc7c6CC(C)(C)C7)C5=O)c4CO)cn(C)c3=O)cc2C1` [Example 141, 2-[3′-Hydroxymethyl-1-methyl-5-(5-methyl-4,5,6,7-tetrahydro-pyrazolo[1,5-a]pyrazin-2-ylamino)-6-oxo-1,6-dihydro-[3,4′]bipyridinyl-2′-yl]-7,7-dimethyl-3,4,7,8-tetrahydro-2H,6H-cyclopenta[4,5]pyrrolo[1,2-a]pyrazin-1-one], with 0.0266 µM.

For `Cn1cc(-c2ccnc(N3CCn4c(cc5c4CCCC5)C3=O)c2CO)cc(Nc2ccncn2)c1=O` [Example 142, 2-[3′-Hydroxymethyl-1-methyl-6-oxo-5-(pyrimidin-4-ylamino)-1,6-dihydro-[3,4′]bipyridinyl-2′-yl]-3,4,6,7,8,9-hexahydro-2H-pyrazino[1,2-a]indol-1-one], the IC70 turned out to be 2.1 µM. Same read-out and setting: then `Cn1cc(-c2ccnc(N3CCc4c(sc5c4CC(C)(C)C5)C3=O)c2CO)cc(Nc2ccncn2)c1=O` [Example 143, 6-[3′-Hydroxymethyl-1-methyl-6-oxo-5-(pyrimidin-4-ylamino)-1,6-dihydro-[3,4′]bipyridinyl-2′-yl]-2,2-dimethyl-2,3,5,6-tetrahydro-1H,4H-8-thia-6-aza-cyclopenta[a]inden-7-one], with 0.0309 µM; and `Cn1cc(-c2ccnc(N3CCn4c(cc5c4CC(C)(C)C5)C3=O)c2CO)cc(Nc2ccncn2)c1=O` [Example 144, 2-[3′-Hydroxymethyl-1-methyl-6-oxo-5-(pyrimidin-4-ylamino)-1,6-dihydro-[3,4′]bipyridinyl-2′-yl]-7,7-dimethyl-3,4,7,8-tetrahydro-2H,6H-cyclopenta-[4,5]pyrrolo[1,2-a]pyrazin-1-one], with 0.106 µM. On the same count and under the same terms, next, `C[C@H]1CN(C2COC2)CCN1c1ccc(Nc2cc(-c3ccnc(N4CCc5c(sc6c5CC(C)(C)C6)C4=O)c3CO)cn(C)c2=O)nc1` [Example 145, 6-{3′-Hydroxymethyl-1-methyl-5-[5-((S)-2-methyl-4-oxetan-3-yl-piperazin-1-yl)-pyridin-2-ylamino]-6-oxo-1,6-dihydro-[3,4′]bipyridinyl-2′-yl}-2,2-dimethyl-2,3,5,6-tetrahydro-1H,4H-8-thia-6-aza-cyclopenta[a]inden-7-one]: 0.0147 µM; `Cn1cc(-c2ccnc(N3CCn4c5c(c(F)c4C3=O)CCCC5)c2CO)cc(Nc2ccncn2)c1=O` [Example 146, 10-Fluoro-2-(3-(hydroxymethyl)-4-(1-methyl-6-oxo-5-(pyrimidin-4-ylamino)-1,6-dihydropyridin-3-yl)pyridin-2-yl)-3,4,6,7,8,9-hexahydropyrazino[1,2-a]indol-1(2H)-one]: 0.0856 µM; `CN1CCn2nc(Nc3cc(-c4ccnc(N5CCc6c(cc7n6CCCC7)C5=O)c4CO)cn(C)c3=O)cc2C1` [Example 147, 2-(3-(Hydroxymethyl)-4-(1-methyl-5-(5-methyl-4,5,6,7-tetrahydro-pyrazolo[1,5-a]pyrazin-2-ylamino)-6-oxo-1,6-dihydropyridin-3-yl)pyridin-2-yl)-3,4,6,7,8,9-hexahydropyrido[3,4-b]indolizin-1(2H)-one]: 0.32 µM. Still for that read-out and setting: next, `C[C@H]1CN(C2COC2)CCN1c1ccc(Nc2cc(-c3ccnc(N4CCn5c(cc6c5CCCC6)C4=O)c3C3(O)COC3)cn(C)c2=O)nc1` [Example 148, (S)-2-(3-(3-Hydroxyoxetan-3-yl)-4-(1-methyl-5-(5-(2-methyl-4-(oxetan-3-yl)piperazin-1-yl)pyridin-2-ylamino)-6-oxo-1,6-dihydropyridin-3-yl)pyridin-2-yl)-3,4,6,7,8,9-hexahydropyrazino[1,2-a]indol-1(2H)-one]: 5 µM; `C[C@H]1CN(C2COC2)CCN1c1ccc(Nc2cc(-c3ccnc(N4CCc5c(cc6n5CCCC6)C4=O)c3CO)cn(C)c2=O)nc1` [Example 149, 2-{3′-Hydroxymethyl-1-methyl-5-[5-((S)-2-methyl-4-oxetan-3-yl-piperazin-1-yl)-pyridin-2-ylamino]-6-oxo-1,6-dihydro-[3,4′]bipyridinyl-2′-yl}-2,3,5,6,7,8-hexahydro-4H-2,4b-diaza-fluoren-1-one]: 0.0454 µM; `CN1CCn2nc(Nc3cc(-c4cncc(N5CCn6c(cc7c6CC(C)(C)C7)C5=O)c4CO)cn(C)c3=O)cc2C1` [Example 150, 2-[4-Hydroxymethyl-1′-methyl-5′-(5-methyl-4,5,6,7-tetrahydro-pyrazolo[1,5-a]pyrazin-2-ylamino)-6′-oxo-1′,6′-dihydro-[3,3′]bipyridinyl-5-yl]-7,7-dimethyl-3,4,7,8-tetrahydro-2H,6H-cyclopenta[4,5]pyrrolo[1,2-a]pyrazin-1-one]: 0.0316 µM. Consider `C[C@@H]1CN(C2COC2)CCN1c1ccc(Nc2cc(-c3ccnc(-n4ccn5c6c(cc5c4=O)CCCC6)c3CO)cn(C)c2=O)nc1` [Example 151, 2-{3′-Hydroxymethyl-1-methyl-5-[5-((R)-2-methyl-4-oxetan-3-yl-piperazin-1-yl)-pyridin-2-ylamino]-6-oxo-1,6-dihydro-[3,4′]bipyridinyl-2′-yl}-6,7,8,9-tetrahydro-2H-pyrazino[1,2-a]indol-1-one], for which the 70% effect concentration (IC70) is 0.0455 µM.

For `C[C@@H]1CN(C2COC2)CCN1c1ccc(Nc2cc(-c3ccnc(N4CCn5c(cc6c5CC(C)(C)C6)C4=O)c3CO)cn(C)c2=O)nc1` [Example 153, 2-{3′-Hydroxymethyl-1-methyl-5-[5-((R)-2-methyl-4-oxetan-3-yl-piperazin-1-yl)-pyridin-2-ylamino]-6-oxo-1,6-dihydro-[3,4′]bipyridinyl-2′-yl}-7,7-dimethyl-3,4,7,8-tetrahydro-2H,6H-cyclopenta[4,5]pyrrolo[1,2-a]pyrazin-1-one], the IC70 turned out to be 0.0238 µM.
